These results are taken from patent publication US4187312A, “3-Hydroxy-4,4-dimethyl-5-pyrrolidone derivatives” (Beecham Group Limited, priority 1975, dated 1980).

For series [1], the system named is aerosol administered histamine challenge. The series can be described thus: protection of conscious guinea pigs from an aerosol administered histamine challenge. The note with it: 30 minutes before continuous aerosol of histamine. Format: in vivo, guinea pig. As for the experimental part:
The compounds were examined for their ability to protect conscious guinea pigs from an aerosol administered histamine challenge. The compounds were given 30 minutes before the animals were challenged with a continuous aerosol of histamine.

The test system of a further series is mice. The series can be described thus: toxicity in mice. Format: in vivo. The note with it: dosed up to 900 mg/kg, subcutaneously.
Series [2] relates to pentagastrin-stimulated gastric acid secretion. Briefly: inhibition of pentagastrin-stimulated gastric acid secretion in the perfused rat stomach preparation (Ghosh and Schild preparation). Format: in vivo. The note with it: 500 μg/kg, intravenously. As for the experimental part:
The anti-secretory activity of the compounds was determined by their inhibition of pentagastrin-stimulated gastric acid secretion in the perfused rat stomach preparation (Ghosh and Schild preparation).

Series [3] relates to 5-hydroxytryptamine-induced bronchoconstriction. The series can be described thus: inhibition of 5-hydroxytryptamine-induced bronchoconstriction in the anaesthetised, artificially respired guinea pig (Konzett-Rossler preparation). Format: in vivo. The note with it: Cavia porcellus, iv, intravenously, read-out: inhibition of bronchoconstriction, IC50. An excerpt:
The compounds were examined for their ability to inhibit 5-hydroxytryptamine-induced bronchoconstriction in the anaesthetised, artificially respired guinea pig (Konzett-Rossler preparation).

As for `CCCCCCC(C)(O)CCN1C(=O)C(C)(C)C(=O)C1CCCCCCC(=O)O` (centres unmarked) [2-(6'-Carboxy-n-hexyl)-4,4-dimethyl-1-(3"-hydroxy-3"-methyl-n-nonyl)pyrrolidin-3,5-dione], the “time taken to elicit a pre-convulsive cough compared with control animals” value in series [1] (2.5 mg/kg, intra-peritoneally) is recorded as “significantly prolonged”; in series [1] (10 mg/kg orally), “significantly prolonged”.

As to `CCCCCCC(C)(O)CCN1C(=O)C(C)(C)C(=O)C1CCCCCCC(=O)OCC` (centres unmarked) [4,4-Dimethyl-2-(6'-ethoxycarbonyl-n-hexyl)-1-(3"-hydroxy-3"-methyl-n-nonyl)-pyrrolidin-3,5-dione], the toxic symptoms result in the series with mice is “No toxic symptoms were observed”. Moreover, the “inhibition of acid secretion” value in series [2] is on record as “inhibited acid secretion”. In addition, the ED50 in series [3] is ~0.01 mg/kg.
